What follows are compounds tested against CES2 (Homo sapiens, UniProt O00748) (assay: Enzyme Inhibition Assay). Conditions: pH 7.4; 25 °C.
Method: CE inhibition was determined using a spectrophotometric multiwell plate assay with o-NPA as a substrate. The rate of change in absorbance at 420 nm was measured at 15 sec intervals for 5 min and compared to wells containing no inhibitor. […] Further analysis of inhibitors was performed in condition that inhibitor concentrations ranged from 1 pM to 100 uM. Data were fitted to the equation. Examination of curve fits to identify the best model for enzyme inhibition. Ki values were then calculated from the equation predicted by Prism to be the best fit for the experimental data.

CES2, sequence (O00748 whole entry, looked up): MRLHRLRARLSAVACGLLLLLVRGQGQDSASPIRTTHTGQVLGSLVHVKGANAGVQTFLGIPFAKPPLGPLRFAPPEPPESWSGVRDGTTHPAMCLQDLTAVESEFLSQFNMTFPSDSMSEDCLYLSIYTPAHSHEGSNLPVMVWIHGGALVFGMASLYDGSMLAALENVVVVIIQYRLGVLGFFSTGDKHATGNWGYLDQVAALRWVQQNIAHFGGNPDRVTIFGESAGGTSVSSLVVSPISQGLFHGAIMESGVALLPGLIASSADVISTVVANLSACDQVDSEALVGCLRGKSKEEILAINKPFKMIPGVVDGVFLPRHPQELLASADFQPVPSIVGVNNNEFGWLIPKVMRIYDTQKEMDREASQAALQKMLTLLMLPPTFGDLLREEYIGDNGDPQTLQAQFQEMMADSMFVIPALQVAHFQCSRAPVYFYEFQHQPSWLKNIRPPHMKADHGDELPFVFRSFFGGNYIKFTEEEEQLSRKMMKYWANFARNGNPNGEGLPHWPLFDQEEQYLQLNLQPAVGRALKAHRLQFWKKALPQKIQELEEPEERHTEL

Ki [µM] | SMILES
> 100 | COc1ccccc1C(=O)C(=O)c1ccccc1OC [1,2-bis(2-methoxyphenyl)ethane-1,2-dione]
> 100 | O=C1C(=O)c2cccc3c2N(CCC3)C1=O [1-azatricyclo[7.3.1.0^{5,13}]trideca-5,7,9(13)-triene-2,3,4-trione]
> 100 | O=C1C(=O)c2cccnc2-c2ncccc21 [5,6-dihydro-1=10-phenantroline-5,6-dione]
